The record followed here is patent US20150141381A1, “TETRACYCLINE COMPOUNDS HAVING TARGET THERAPEUTIC ACTIVITIES” (Paratek Pharmaceuticals, Inc., priority 2001, published 2015).

Each structure is given as a SMILES string. Where two headings read alike, the source gives them in different places.

The test system of data set [1] is MMP-9 production from PMA stimulated THP-1 cells. The data set is described as follows: Assay for MMP-9 Production from PMA Stimulated THP-1 Cells. It counts as cell-based, human. To be noted: PMA 10 nM, 24 hours, MMP-9 ELISA of conditioned media. The method, then: Cultures of human monocyte THP-1 cells were suspended at 1×10^6 cells/mL in RPMI-1640 supplemented with 10% FCS. Cell suspensions (90 μL per well) were seeded into 96-well microtiter plates, and incubated for 30 minutes at 37° C., in 5% CO2 and approximately 95% humidity. Serial dilutions of test drug are prepared at 2× final concentration under sterile conditions and 100 μL was transferred to cell plates. Plates were then incubated as above for 15 minutes. PMA (phorbol-12-myristate-13-acetate) was diluted in media to 20× final concentration. 10 μL of diluted PMA was added to the cell plate, resulting in a final concentration of 10 nM. Plates were then incubated again as above for 24 hours. After 24 hours, 100 μL of conditioned media was tested for MMP-9 protein levels using the Quantikine® Human MMP-9 (total) Immunoassay from R&D Systems. MMP-9 levels were calculated based on a standard curve of purified MMP-9 dilution samples run simultaneously in the ELISA plate. This assay detected both the 92 kDa pro- and 82 kDa active forms of MMP-9.

Data set [2] concerns nitric oxide synthesis in the J774 cell line. The data set is described as follows: Lipopolysaccharide Stimulation of Macrophage Assay (LSM Assay), inhibition of nitric oxide. Type of data set: cell-based. To be noted: for Nitrite (inhibition of nitric oxide synthesis): LPS-stimulated J774 cells, Table 3 (Continued) key; for Nitrite: inhibition of nitric oxide synthesis, LPS (100 ng/ml) stimulated J774 cells, nitrite by Greiss Reaction, test compound 56 μg/ml. Here is the method:
This assay was used to determine the anti-inflammatory effect of tetracycline compounds of the invention by determining the modulation of nitric oxide, interleukin-10 and interleukin-12 synthesis in the J774 cell line, according to a literature procedure (D'Agostino P. et al. Int Immunopharmacol. 2001 September; 1(9-10):1765-76). J774.2 cells were stimulated with 100 ng/ml lipopolysaccharide (LPS). Nitrite, the spontaneous degradation product of nitric oxide, is measured in cell supernatants using the Greiss Reaction. In the experimental conditions, test tetracycline compounds were added 30 minutes prior to LPS stimulation. Cytotoxicity is determined using Resazurin metabolism. On the first day, a 96-well black-walled plate (except for the bottom row) was seeded with 100 μl of a 2.5×10^6 cells/ml suspension and incubated for two hours at 37° C. and 5% CO2. Towards the end of the two hour incubation period, test compounds were prepared at a concentration of 139 μg/ml, in 1.25% DMSO, a 2.5× concentration ready for addition to the cells.
At the end of the two hour incubation period, 80 μl of each of the test tetracycline compound solutions were added to the cell plates to make a final concentration of 56 μg/ml. Next, 80 μl of 1.25% DMSO in media was added to the negative control wells. Then, 80 μl of media was added to the positive control wells. The plate was then incubated for half an hour at 37° C., 5% CO2. A 10× working solution of LPS was prepared at a concentration of 1 μg/ml LPS.
After the half hour incubation period, 20 μl of LPS (1 μg/ml) in media was added to half of the test and control wells to give a final concentration of 100 ng/ml. Next, 20 μl of media was added to other half of the wells. The plate was then incubated for 24 hours at 37° C., 5% CO2. 100 μl of the supernatant from each well was collected for nitrite testing. 60 μl of the supernatant was collected for cytokine testing using an enzyme linked immunosorbant assay. The plates are then stored after being covered with sealer and frozen.
For the testing toxicity, the remaining media was blotted from the cell plates and 50 μl of Resazurin was added to each well (0.042 mg/ml in PBS w/Ca and Mg). The plate were then incubated for 45 mins, 37° C., 5% CO2, and for 30 minutes at room temperature. The plate was then read for Resazurin fluorescence.
50 μl/well of sulfanilamide solution (1% sulfanilamide in 5% […]) was added to supernatant plates. The plates were then incubated for 10 minutes at room temperature in the dark. Next, 50 μl/well NED solution (0.1% N-1-naphthylethylene diamine dihydrochloride in water) was added and incubated for 10 minutes at room temperature in the dark. Plates are then read for nitrite measurement and compared to a standard curve generated from the control wells.

The next data set has as its system S. aureus RN450. Kind of data set: In Vitro Anti-Bacterial Activity Assay (MIC), gram positive. Type of data set: cell-based. To be noted: Staphylococcus aureus, RN450, 18 h.
Another data set relates to E. coli mL308 225. The data set is described as follows: In Vitro Anti-Bacterial Activity Assay (MIC), gram negative. It counts as cell-based. The conditions noted are these: Escherichia coli, ML308225, 18 h.
Data set [3] relates to cultured murine cortical neurons. The data set is described as follows: Protection of Cultured Cortical Neurons from Excitotoxic Injury Induced by NMDA (NE Assay). Type of data set: cell-based, mice. The conditions noted are these: NMDA 62.5 μM, LDH release 24 hours after starting the exposure. The method, then:
Primary cortical astrocyte cultures were prepared from one-day old mice, as described in the literature procedure (Tikka, T M et al. J Immunol. 2001 Jun. 15; 166(12):7527-33). After decapitation, the forebrain cortices were collected, cleaned from meninges and, after mincing, dissociated by incubation in papain/Dnase solution followed by trituration. The dissociated cells were suspended in a culture medium consisting of Eagle's minimal essential medium (MEM) with 10% heat-inactivated fetal bovine serum and glutamine (2 mM) and plated in 75 cm^2 cell culture flasks. The medium was replaced with fresh culture medium at day 7. At confluence (day 12-15), the astrocytes were trypsinized and re-plated into 24-well culture vessels. On day 7-8, the neurons were cultured on top of these confluent astrocyte monolayers.
Cortical neuron suspensions were prepared from embryonic day 17 mice. The cortices were collected and meninges removed. The tissue was minced into small pieces and incubated in trypsin solution. The tissue was suspended using a pipette and after centrifugation resuspended and plated on top of astrocyte cultures at a density of 250,000 cells/well to 24-well culture vessel in Eagle's minimal essential medium (MEM, Earle's salts) supplemented with 20 mM glucose, 2 mM glutamine, 10% fetal bovine serum, and 10% heat-inactivated horse serum (HS). Medium was changed after 5 days to MEM containing 20 mM glucose, 2 mM glutamine, and 10% HS, as well as cytosine arabinoside (final concentration 10 μM) to inhibit cell division, and incubated for 2 days. Subsequently, cultures were fed twice weekly with MEM supplemented with 20 mM glucose, 2 mM glutamine and 10% HS, and used at day 12-15.
On the day of experiment, the culture medium was replaced with 1) MEM, 2) MEM containing the test tetracycline compounds. Positive control drug included 10 μM MK-801 (Sigma). […] As a control for total neuronal death, a 24 hour incubation with 500 μM NMDA was used (100% cell death control).
The cell viability was assessed by measuring lactate dehydrogenase (LDH) release 24 hours after starting the exposure. The LDH release to the culture medium was measured from cell-free medium using Sigma LDH reagent employing kinetic measurement of conversion of lactate to pyruvate using NADH as a cofactor. The rate of increase in absorbance at 340 nm was directly proportional to the activity of LDH in the sample, and was measured with a Labsystems Multiskan ELISA reader.

A short description of a further data set: in vitro. It counts as cell-based. To be noted: African green monkey (COS-1) and Chinese hamster (CHO-K1). The method, then:
COS-1 and CHO-K1 cell suspensions were prepared, seeded into 96-well tissue culture treated black-walled microtiter plates (density determined by cell line), and incubated overnight at 37° C., in 5% CO2 and approximately 95% humidity. The following day, serial dilutions of drug were prepared under sterile conditions and transferred to cell plates. Cell/Drug plates were incubated under the above conditions for 24 hours. Following the incubation period, media/drug was aspirated and 50 μl of Resazurin (0.042 mg/ml in PBS w/Ca and Mg) was added. The plates were then incubated under the above conditions for 2 hours and then in the dark at room temperature for an additional 30 minutes. Fluorescence measurements were taken (excitation 535 nm, emission 590 nm).

Setting [4] is: gram positive bacteria, read-out: Antibiotic Activity Gram + (MIC).
Where [5] appears, read: gram negative bacteria, read-out: Antibiotic Activity Gram − (MIC).
The mark [6] stands for this setting: MIC class, Table 3, read-out: Antibiotic Activity Gram +.
[7] abbreviates: MIC class, Table 3, read-out: Antibiotic Activity Gram −.

As for `CN(C)[C@@H]1C(O)=C(C(N)=O)C(=O)[C@@]2(O)C(O)=C3C(=O)c4c(O)ccc(N5CCOCC5)c4C[C@H]3C[C@@H]12` [drawing 4289], the “MMP-9 (inhibition of MMP-9 production)” value in data set [1] was 2.
Consider `CN(C)CCC(=O)c1ccc(O)c2c1C[C@H]1C[C@H]3[C@H](N(C)C)C(O)=C(C(N)=O)C(=O)[C@@]3(O)C(O)=C1C2=O` [drawing 4022], for which, in data set [1], the “MMP-9 (inhibition of MMP-9 production)” value was 3.
With `C[C@H]1c2ccc(CN3CCC(C(F)(F)F)CC3)c(O)c2C(=O)C2=C(O)[C@]3(O)C(=O)C(C(N)=O)=C(O)[C@@H](N(C)C)[C@@H]3[C@@H](O)[C@@H]21`, in data set [2], the “Nitrite (inhibition of nitric oxide synthesis)” value is on record as 3. Besides, the MIC in the data set with S. aureus RN450 (setting [4]) and in the data set on E. coli mL308 225 (setting [5]) was less than 4 µg/mL in each case.
Consider `CN(C)c1cc(-c2ccc(CN3CCCC3)o2)c(O)c2c1C[C@H]1C[C@H]3[C@H](N(C)C)C(O)=C(C(N)=O)C(=O)[C@@]3(O)C(O)=C1C2=O` [LJ], for which the Nitrite result in data set [2] was “○”. The MIC in the data set with S. aureus RN450 (setting [6]) and with E. coli mL308 225 (setting [7]) was more than 4 µg/mL each time.
Take `CCC(=O)O[C@H]1[C@H]2C(=C(O)[C@]3(O)C(=O)C(C(N)=O)=C(O)[C@@H](N(C)C)[C@H]13)C(=O)c1c(ccc(NC(=O)Nc3cccc4ccccc34)c1O)[C@@H]2C` [Q]: the Nitrite result in data set [2] is recorded as “○”. For the same compound, the MIC was less than 4 µg/mL in the data set with S. aureus RN450 (setting [6]) and more than 4 µg/mL in the data set on E. coli mL308 225 (setting [7]). In data set [3], the “neuroprotection (cell viability by LDH release)” value (“neuroprotection” below) is “good neuroprotection”.
In the case of `CC(=O)Nc1cccc(-c2cc(N(C)C)c3c(c2O)C(=O)C2=C(O)[C@]4(O)C(=O)C(C(N)=O)=C(O)[C@@H](N(C)C)[C@@H]4C[C@@H]2C3)c1` [G], the Nitrite result in data set [2] is recorded as “○”. Besides, the MIC in the data set with S. aureus RN450 (setting [6]) and in the data set with E. coli mL308 225 (setting [7]) was more than 4 µg/mL each time. Moreover, the “neuroprotection” value in data set [3] is “good neuroprotection”.
Turning to `CN(C)[C@@H]1C(O)=C(C(N)=O)C(=O)[C@@]2(O)C(O)=C3C(=O)c4c(O)ccc(-c5ccc(NC(=O)c6ccno6)cc5)c4C[C@H]3C[C@@H]12` [drawing 4097], the “MMP-9 (inhibition of MMP-9 production)” value in data set [1] was determined as 3.
As to `CN(C)c1ccc(O)c2c1CC1CC3[C@H](N(C)C)C(O)=C(C(N)=O)C(=O)C3(O)C(O)=C1C2=O` (some centres unmarked) [minocycline, Minocycline], in “in vitro”, the IC50 at 24 h was more than 25 µg/mL.
As to `CN(C)[C@@H]1C(O)=C(C(N)=O)C(=O)[C@@]2(O)C(O)=C3C(=O)c4c(O)ccc(-c5ccccn5)c4C[C@H]3C[C@@H]12`, the “Nitrite (inhibition of nitric oxide synthesis)” value in data set [2] worked out at 3. In addition, the MIC in the data set on S. aureus RN450 (setting [4]) and in the data set with E. coli mL308 225 (setting [5]) was less than 4 µg/mL in each case.
With `CCCCOc1ccc(N(C)C)c2c1C(=O)C1=C(O)[C@]3(O)C(=O)C(C(N)=O)=C(O)[C@@H](N(C)C)[C@@H]3C[C@@H]1C2` [OM], the Nitrite entry in data set [2] is reported as “○”. The MIC in the data set with S. aureus RN450 (setting [6]) and with E. coli mL308 225 (setting [7]) was more than 4 µg/mL throughout. The “neuroprotection” value in data set [3] is on record as “good neuroprotection”.
Take `CC1c2cccc(O)c2C(=O)C2=C(O)C3(O)C(=O)C(C(N)=O)=C(O)C(N(C)C)C3C(O)C21` (centres unmarked) [doxycycline, Doxycycline]: the IC50 at 24 h in the data set “in vitro” was more than 25 µg/mL.
